Test results from patent US9145415B2, “Nitrogen-containing heterocyclic compound or salt thereof” (FUJIFILM Corporation, priority 2012, dated 2015).
Where two headings read alike, the source gives them in different places.

Legend:
Molm-13 cells = assay: Leukemia cell proliferation inhibition test (ATPlite), Molm-13; type: cell-based; details: Homo sapiens, read-out: MOLM13 cell proliferation inhibition effect
How it was run: (§1)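 Proliferation inhibition is quantified from total cellular ATP, measured by luciferase luminescence, after cells grow with compound for 72 hours. The GI50 is the concentration giving half the signal of the 0.1% DMSO control, fitted to a sigmoid curve from duplicate points.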

[1] = biological target: T1, human FLT3 protein (FLT3 (WT)) (Homo sapiens, UniProt P36888); assay: FLT3 inhibition test (FLT3 enzyme inhibition, time-resolved fluorescence of substrate peptide phosphorylation); type: biochemical; details: read-out: FLT3 (WT) enzyme inhibition activity
T1 construct: human FLT3 protein (intracellular region, 564 to 993 aa); GST; purchased Carna Biosciences; host or cells: baculovirus expression system
T1 sequence (P36888 564-993): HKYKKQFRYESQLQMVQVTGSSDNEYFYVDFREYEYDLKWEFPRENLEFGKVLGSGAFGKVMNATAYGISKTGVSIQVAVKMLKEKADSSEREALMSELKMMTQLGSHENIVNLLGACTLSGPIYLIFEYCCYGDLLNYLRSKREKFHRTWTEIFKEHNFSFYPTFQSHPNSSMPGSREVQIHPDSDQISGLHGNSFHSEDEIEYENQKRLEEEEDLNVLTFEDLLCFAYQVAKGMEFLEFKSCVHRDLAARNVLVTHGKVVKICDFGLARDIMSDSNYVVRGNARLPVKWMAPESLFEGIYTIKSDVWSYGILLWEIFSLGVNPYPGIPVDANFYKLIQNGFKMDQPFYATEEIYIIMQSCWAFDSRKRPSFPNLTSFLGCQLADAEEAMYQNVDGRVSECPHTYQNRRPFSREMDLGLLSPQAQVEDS
How it was run: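 Substrate peptide phosphorylation detected by time-resolved fluorescence after a 30 min kinase reaction at 25° C with 50 μM ATP (final). Beforehand, compound and FLT3 (WT, 1.2 μg) stood 15 min at 25° C in HEPES buffer pH 7.5 containing MgCl2, NaCl, BSA and DTT.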

MV4-11 cells = assay: Leukemia cell proliferation inhibition test (ATPlite), MV4-11; type: cell-based; details: Homo sapiens, read-out: MV4-11 cell proliferation inhibition effect
How it was run: as §1

[2] = MOLM-13, 72 h, Molm-13, 72 hours culture, ATPlite, GI50 per method
[3] = GST-fused human FLT3 (564 to 993 aa), ATP 50 μM
[4] = MV4-11, 72 h, MV4-11, 72 hours culture, ATPlite, GI50 per method

SMILES	IC50 (Molm-13 cells; [2]) [nM]	IC50 [1, 3] [nM]	IC50 (MV4-11 cells; [4]) [nM]	IC50 (Molm-13 cells; MOLM-13, MOLM13 cell) [nM]	IC50 ([1]; FLT3 (WT)) [nM]	IC50 (MV4-11 cells; MV4-11, MV4-11 cell) [nM]
CCCNc1nc(Nc2ccc(C(N)=O)cc2)ncc1C(=O)Nc1cccc(NC(=O)[C@H](C)N(C)C(=O)/C=C/CN2CCNCC2)c1 [Compound 4-1, (S,E)-2-((4-carbamoylphenyl)amino)-N-(3-(2-(N-methyl-4-(piperazin-1-yl)-2-butenamido)propanamido)phenyl)-4-(propylamino)pyrimidine-5-carboxamide]	10 to 100	< 10	10 to 100	–	–	–
CCCNc1nc(Nc2ccc3c(OC)nn(C)c3c2)ncc1C#CCCCNC(=O)[C@@H]1CCCN1C(=O)/C=C/CN(C)C [Compound 22-42]	–	–	–	< 10	< 10	< 10
CCCNc1nc(Nc2cccc(F)c2)ncc1C#CCCCNC(=O)[C@H](CCC)N(C)C(=O)/C=C/CN(C)C [Compound 7-18]	10 to 100	< 10	10 to 100	–	–	–
CCCNc1nc(Nc2cccc(C#N)c2)ncc1C#C[C@H]1C[C@@H](NC(=O)[C@H](C)N(C)C(=O)/C=C/CN(C)C)C1 [Compound 13-17]	< 10	< 10	< 10	–	–	–
CNc1nc(Nc2cccc(F)c2)ncc1C#C[C@@H]1CCC[C@H](NC(=O)[C@H](C)N(C)C(=O)/C=C/CN(C)C)C1 [Compound 15-6]	< 10	< 10	< 10	–	–	–
CCCNc1nc(NCCc2ccncc2)ncc1C(=O)Nc1cccc(NC(=O)CNC(=O)/C=C/CN2CCOCC2)c1 [Compound 2-13]	10 to 100	< 10	10 to 100	–	–	–
CN(C)C/C=C/C(=O)N(C)CC(=O)NCCCC#Cc1cnc(Nc2ccc(F)cc2)nc1NCCCF [Compound 10-21]	< 10	< 10	< 10	–	–	–
C=CC(=O)N[C@H](C)C(=O)Nc1cccc(NC(=O)c2cnc(NCCc3ccncc3)nc2NCCC)c1 [Compound 2-3]	10 to 100	< 10	10 to 100	–	–	–
CNc1nc(Nc2ccc3c(c2)c(F)nn3C)ncc1C#CCCCNC(=O)[C@H](C)N(C)C(=O)/C=C/CN(C)C [Compound 21-49]	–	–	–	< 10	10 to 100	< 10
C=CC(=O)NCC(=O)N1CCC(NC(=O)c2cnc(NCCc3ccncc3)nc2NCCC)C1 (stereo not drawn) [Compound 6-17]	100 to 1000	10 to 100	100 to 1000	–	–	–
CCCNc1nc(Nc2cnc3c(c2)c(OC)nn3C)ncc1C#CCCCNC(=O)[C@H](C)N(C)C(=O)/C=C/CN(C)C [Compound 22-29]	–	–	–	< 10	< 10	< 10
CCCNc1nc(NCCc2ccncc2)ncc1C(=O)NCCC(CC)NC(=O)CN(C)C(=O)/C=C/CN(C)C (stereo not drawn) [Compound 1-12]	10 to 100	< 10	< 10	–	–	–
CC(C)Oc1nc(Nc2ccc(C#N)cc2)ncc1C#C[C@@H]1CCC[C@H](NC(=O)[C@H](C)N(C)C(=O)/C=C/CN(C)C)C1 [Compound 21-22]	< 10	< 10	< 10	–	–	–
CCCNc1nc(Nc2cccc(F)c2)ncc1C#CCCCNC(=O)[C@H](C(C)C)N(C)C(=O)/C=C/CN(C)C [Compound 7-10]	10 to 100	< 10	10 to 100	–	–	–
CCCNc1nc(Nc2ccc3c(OC)nn(CCOC)c3c2)ncc1C#CCCCNC(=O)[C@@H]1CCCN1C(=O)/C=C/CN(C)C [Compound 22-55]	–	–	–	< 10	< 10	< 10
C=CC(=O)NCC(=O)NCCCNC(=O)c1cnc(NCCc2ccncc2)nc1NCCC [Compound 2-2, N-(3-(2-(acrylylamido)actamido)propyl)-4-(propylamino)-2-((2-(pyridin-4-yl)ethyl)amino)pyrimidine-5-carboxamide]	10 to 100	< 10	10 to 100	–	–	–
CNc1nc(Nc2ccc(C#N)cc2)ncc1C#CCCCNC(=O)CN(C)C(=O)/C=C/CN(C)C [Compound 7-88, (E)-N-(2-((5-(2-((4-Cyanophenyl)amino)-4-(methylamino)pyrimidin-5-yl)-4-pentyn-1-yl)amino)-2-oxoethyl)-4-(dimethylamino)-N-methyl-2-butenamide]	< 10	< 10	< 10	–	–	–

SMILES	IC50 (Molm-13 cells; [2]) [nM]	IC50 [1, 3] [nM]	IC50 (MV4-11 cells; [4]) [nM]	IC50 (Molm-13 cells; MOLM-13, MOLM13 cell) [nM]	IC50 ([1]; FLT3 (WT)) [nM]	IC50 (MV4-11 cells; MV4-11, MV4-11 cell) [nM]
CCCNc1nc(Nc2cccc(F)c2)ncc1-c1cc(CCNC(=O)[C@H](C)N(C)C(=O)/C=C/CN(C)C)on1 [Compound 17-3, (S,E)-4-(dimethylamino)-N-(1-((2-(3-(2-((3-fluorophenyl)amino)-4-(propylamino)pyrimidin-5-yl)isoxazol-5-yl)ethyl)amino)-1-oxopropan-2-yl)-N-methyl-2-butenamide]	10 to 100	< 10	10 to 100	–	–	–
CCCNc1nc(Nc2cccc(F)c2)ncc1C#C[C@@H]1CCC[C@H](NC(=O)[C@H](C)N(C)C(=O)/C=C/CN(C)C)C1 [Compound 13-1, (E)-4-(dimethylamino)-N—((S)-1-(((1S,3R)-3-((2-((3-fluorophenyl)amino)-4-(propylamino)pyrimidin-5-yl)ethynyl)cyclohexyl)amino)-1-oxopropan-2-yl)-N-methyl-2-butenamide]	< 10	< 10	< 10	–	–	–
CCCNc1nc(Nc2ccc(C(N)=O)cc2)ncc1C#Cc1ccc(NC(=O)CNC(=O)/C=C/CN(C)C)cc1 [Compound 8-4]	10 to 100	< 10	10 to 100	–	–	–
CCCNc1nc(Nc2ccc3[nH]nc(OC)c3c2)ncc1C#CCCCNC(=O)[C@H](C)N(C)C(=O)/C=C/CN(C)C [Compound 22-64]	–	–	–	< 10	< 10	< 10
CCCNc1nc(Nc2ccc(C)nc2)ncc1C#CCCCNC(=O)[C@H](C)N(C)C(=O)/C=C/CN(C)C [Compound 21-17]	10 to 100	< 10	< 10	–	–	–
CCCNc1nc(Nc2ccc(C(N)=O)cc2)ncc1C#CCCCNC(=O)[C@H](C)N(C)C(=O)/C=C/CN(C)C [Compound 7-4, (S,E)-4-((5-(5-(2-(4-(Dimethylamino)-N-methyl-2-butenamido)propaneamido)-1-pentyn-1-yl)-4-(propylamino)pyrimidin-2-yl)amino)benzamide]	< 10	< 10	< 10	–	–	–
CN(C)C/C=C/C(=O)N1CCC[C@H]1C(=O)NCCCC#Cc1cnc(Nc2ccc3cn[nH]c3c2)nc1NC1CC1 [Compound 10-75]	< 10	< 10	< 10	–	–	–
C[C@@H](C(=O)NCCCC#Cc1cnc(Nc2ccc(C#N)cc2)nc1N1CCC(F)(F)CC1)N(C)C(=O)/C=C/CN(C)C [Compound 10-43]	10 to 100	< 10	10 to 100	–	–	–
CCCNc1nc(Nc2ccc3[nH]ncc3c2)ncc1C#CCCCNC(=O)[C@H](C)N(C)C(=O)/C=C/CN(C)C [Compound 21-55]	–	–	–	< 10	< 10	< 10
CNc1nc(Nc2ccc(OC)c(F)c2)ncc1C#C[C@H]1C[C@@H](NC(=O)[C@H](C)N(C)C(=O)/C=C/CN(C)C)C1 [Compound 13-16, (E)-4-(Dimethylamino)-N—((S)-1-(((1S,3R)-3-((2-((3-fluoro-4-methoxyphenyl)amino)-4-(methylamino)pyrimidin-5-yl)ethynyl)cyclobutyl)amino)-1-oxopropan-2-yl)-N-methyl-2-butenamide]	< 10	< 10	< 10	–	–	–
C[C@@H](C(=O)NCCCC#Cc1cnc(Nc2ccc(F)nc2)nc1N1CCOCC1)N(C)C(=O)/C=C/CN(C)C [Compound 11-9]	10 to 100	< 10	10 to 100	–	–	–
CCCNc1nc(Nc2ccc(C(N)=O)cc2)ncc1C(=O)Nc1cccc(NC(=O)[C@H](C)N(C)C(=O)/C=C/CN(C)CC)c1 [Compound 4-3]	< 10	< 10	< 10	–	–	–
CCCNc1nc(Nc2ccc(C(N)=O)cc2)ncc1C(=O)Nc1cccc(N2CCN(C(=O)/C=C/CN(C)C)CC2)c1 [Compound 3-31]	100 to 1000	< 10	100 to 1000	–	–	–
COc1ccc(Nc2nc(Nc3cccc(F)c3)ncc2C#CCCCNC(=O)[C@H](C)N(C)C(=O)/C=C/CN(C)C)cn1 [Compound 7-19]	< 10	< 10	< 10	–	–	–
CCCN(C)c1nc(Nc2ccc(C(=O)NC)cc2)ncc1C#CCCCNC(=O)[C@H](C)N(C)C(=O)/C=C/CN(C)C [Compound 9-9]	< 10	< 10	< 10	–	–	–
CCCNc1nc(Nc2ccc3c(c2)c(OC)nn3C)ncc1C#CCCCNC(=O)[C@@H]1CCCN1C(=O)/C=C/CN(C)C [Compound 22-30]	–	–	–	< 10	< 10	< 10
